Entries after “also recorded” stand apart in the source; their conditions may differ.
Tested on: cardiac sympathetic neurons of the isolated rat heart
Assay: Kinetics of [11C]phenethylguanidines in isolated perfused working rat heart (neuronal uptake and clearance)
Conditions: for Major Clearance Rate T1/2 / half-life: rat
Source text: To evaluate radiolabeled phenethylguanidines as imaging agents for nuclear medicine, several [^11C]-labeled phenethylguanidines were synthesized and initial bioevaluations of these compounds performed using an isolated rat heart preparation. […] [^11C]-labeling was used to initially assess the imaging properties of these compounds for the following reasons. A radiosynthetic method for making [^11C]guanidines (see, e.g., Westerberg, G. and Langstrom, B. (1997) J. Labeled Compds. Radiopharm. 39:525-529; herein incorporated by reference in its entirety), allowed efficient synthesis and evaluation of these compounds.
The present invention is not limited to a particular mechanism. Indeed, an understanding of the mechanism is not necessary to practice the present invention. […] Provided below is a detailed description of how these specific kinetic properties offer a significant advantage over currently available sympathetic nerve radiotracers.

Compound | Neuronal Uptake Rate Kup (isolated rat heart) [mL/min/g] | Major Clearance Rate T1/2 | neuronal retention / clearance (in words) (isolated rat heart) | other results
N=[11C](N)NCCc1ccccc1 [I-1, [^11C]phenethylguanidine] | 1.56 | 200 min |  | 
N=[11C](N)NCCc1ccccc1F [II-3, [^11C]ortho-fluorophenethylguanidine] | 1.76 | 135 min |  | 
N=[11C](N)NCCc1ccc(F)c(O)c1 [II-4, [^11C]para-fluoro-meta-hydroxy-phenethylguanidine] | 0.77 | trapped | very long neuronal retention times | 
N=[11C](N)NC[C@H](O)c1ccccc1 [I-2, [^11C](−)-β-hydroxyphenethylguanidine] | 0.42 | 1158 min |  | 
CNC[C@H](O)c1cccc(O)c1 [PHEN, [^11C]phenylephrine, reference compound] | 0.72 |  |  | half-life: 98 min
N=[11C](N)NCCc1cccc(F)c1 [II-1, [^11C]meta-fluorophenethylguanidine] | 0.24 | 116 min |  | 
2-[^18F]fluoro-2-deoxy-D-glucose [FDG, reference compound] |  |  |  | myocardial uptake rate (isolated rat heart, 10 mM glucose, no insulin, 10 min constant infusion, FIG. 5): 0.31 ml/min/g wet
C[C@H](N[11C](=N)N)[C@H](O)c1cccc(O)c1 [I-9, N-[^11C]guanyl-(−)-metaraminol] | 0.08 | 1211 min | very long neuronal retention times | neuronal uptake rate (in words) (isolated rat heart): slow and slower than all currently used tracers
CNC[C@H](O)c1ccc(O)c(O)c1 [EPI, [^11C]epinephrine, reference compound] | 0.60 |  |  | half-life: 1580 min
N=[11C](N)NCC(O)c1cccc(O)c1 (stereo not drawn) [I-7, N-[^11C]guanyl-meta-octopamine] | 0.28 | 13000 min | very long neuronal retention times | neuronal uptake rate (in words) (isolated rat heart): slow and slower than all currently used tracers; neuronal uptake rate (isolated rat heart, 10 min constant infusion, FIG. 5): 0.28 ml/min/g wet; neuronal retention / clearance (in words) (isolated rat heart, listed as GMO): well retained; also recorded: neuronal trapping of GMO is more efficient than the myocardial trapping of FDG
COc1ccc(CCN[11C](=N)N)cc1 [I-3, [^11C]para-methoxy-phenethylguanidine] | 0.73 | 137 min |  | 
N=[11C](N)NCCc1ccc(F)cc1 [II-2, [^11C]para-fluorophenethylguanidine] | 0.63 | 266 min |  | 
N=[11C](N)NCCc1cc(O)ccc1F [II-5, [^11C]ortho-fluoro-meta-hydroxy-phenethylguanidine] | 0.54 | 1207 min | very long neuronal retention times | 
N=[11C](N)NCCc1ccc(O)cc1 [I-5, [^11C]para-hydroxyphenethylguanidine] | 1.92 | 2888 min | efficient vesicular storage; also recorded: very long retention times | neuronal uptake rate (in words) (isolated rat heart): fast and rapid; neuronal retention / clearance (in words) (isolated rat heart, listed as PHPG): well retained
C[C@H](N[11CH3])[C@H](O)c1cccc(O)c1 [HED, [^11C]meta-hydroxyephedrine, reference compound] | 2.35 |  |  | 
N=[11C](N)NCCc1cccc(O)c1 [I-4, [^11C]meta-hydroxyphenethylguanidine] | 2.12 | trapped | efficient vesicular storage; also recorded: very long retention times | neuronal uptake rate (in words) (isolated rat heart): fast and rapid
NC[C@H](O)c1ccc(O)c(O)c1 [NE, [^3H]norepinephrine, reference compound] | 4.44 |  |  | half-life: > 1000 min
N=[11C](N)NC[C@H](O)c1ccc(O)c(O)c1 [I-8, N-[^11C]guanyl-norepinephrine] | 0.09 |  |  | 
N=[11C](N)NCCc1ccc(O)c(O)c1 [I-6, [^11C]3,4-dihydroxyphenethylguanidine] | 1.07 | 1411 min |  | 
N=[11C](N)NCCc1cccc(I)c1 [III-1, [^11C]meta-iodophenethylguanidine] | 1.10 | 143 min | approximately the same rate as MIBG | neuronal uptake rate, times slower than MIBG (isolated rat heart, relative to MIBG): around 3 times
NC(N)=NCc1cccc(I)c1 [MIBG, [^11C]meta-iodobenzylguanidine, reference compound] | 3.65 |  |  | neuronal uptake rate (in words) (isolated rat heart): very rapid
